Assay results reported in patent US5834518A, “Use of N,N'-dibenzylethylenediamine-N,N'-diacetic acid derivatives as depigmenting agents” (L'Oreal, priority 1996, dated 1998).

Experiments:
Human melanocytes = test: cytotoxicity to cultured human melanocytes; format: cell-based; settings: 0.1 mM, 0.25 mM, 0.5 mM and 0.75 mM in human melanocyte culture
[1] = molecular target: T1, human melanocyte tyrosinase (Homo sapiens, UniProt P14679); test: dopa-oxidase activity of human melanocyte tyrosinase after culturing melanocytes with compound; format: cell-based; settings: human melanocytes cultured three days, 5 mM L-dopa, absorbance 475 nm, read-out: Percentage of inhibition
T1 construct: Human melanocytes are prepared and cultured; endogenous in cells; host or cells: cultured human melanocytes
T1 sequence (P14679 19-529): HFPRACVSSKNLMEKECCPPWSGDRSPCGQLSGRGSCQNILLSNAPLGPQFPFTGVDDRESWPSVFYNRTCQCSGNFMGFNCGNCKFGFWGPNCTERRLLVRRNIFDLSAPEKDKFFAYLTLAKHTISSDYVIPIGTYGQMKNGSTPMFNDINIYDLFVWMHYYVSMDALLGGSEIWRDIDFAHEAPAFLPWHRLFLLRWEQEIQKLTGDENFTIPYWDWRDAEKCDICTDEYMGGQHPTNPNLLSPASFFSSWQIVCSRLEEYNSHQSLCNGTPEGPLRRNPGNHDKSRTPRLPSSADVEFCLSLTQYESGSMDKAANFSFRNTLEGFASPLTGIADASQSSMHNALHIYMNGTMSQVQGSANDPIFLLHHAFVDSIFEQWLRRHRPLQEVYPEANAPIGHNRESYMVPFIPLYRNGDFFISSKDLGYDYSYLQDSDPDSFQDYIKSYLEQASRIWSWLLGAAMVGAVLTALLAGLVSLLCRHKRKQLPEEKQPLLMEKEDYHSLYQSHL
Description: The effectiveness of the compound of formula (1) as a tyrosinase inhibitor is determined by evaluating its effect on the dopa-oxidase activity of human melanocyte tyrosinase. The compound tested is N,N'-di(3-hydroxybenzyl)ethylenediamine-N,N'-diacetic acid of formula (II): [drawing 5]
Human melanocytes are prepared and cultured and then introduced into media containing different, non-cytotoxic concentrations of the compound of formula (II) (0.1 mM, 0.25 mM, 0.5 mM and 0.75 mM). After three days, the melanocytes are "trypsinized" in a mixture of trypsin/0.05% EDTA/0.02% in a phosphate buffer (50 mM at pH 6.8), washed three times in the phosphate buffer containing 1% (w/v) Triton x-100 and subjected to ultrasound. After centrifugation, samples are taken and mixed with 5 mM L-dopa in phosphate buffer. The tyrosinase activity is evaluated by spectrophotometry by measuring the increase in the absorbance at 475 nm because of the formation of dopachrome from 5 mM dope. The absorbance is read on a microplate reader at 25° C. for 60 min.
The activity of the cellular tyrosinase is measured relative to a standard range prepared with commercial tyrosinase.

inhibition at 100 µM ([1]; 0.1 mM compound): 19%
inhibition at 250 µM ([1]; 0.25 mM compound): 30%
inhibition at 500 µM ([1]; 0.5 mM compound): 33%
inhibition at 750 µM ([1]; 0.75 mM compound): 42%
SMILES: O=C(O)CN(CCN(CC(=O)O)Cc1cccc(O)c1)Cc1cccc(O)c1 [compound of formula (II), N,N'-di(3-hydroxybenzyl)ethylenediamine-N,N'-diacetic acid]
cytotoxicity of the concentrations used (Human melanocytes): non-cytotoxic
